Key:
CYP6P2 = biological target: T1, CYP6P2 (Anopheles gambiae, UniProt Q8T629, V81I)
T1 sequence (Q8T629 1-507 V81I): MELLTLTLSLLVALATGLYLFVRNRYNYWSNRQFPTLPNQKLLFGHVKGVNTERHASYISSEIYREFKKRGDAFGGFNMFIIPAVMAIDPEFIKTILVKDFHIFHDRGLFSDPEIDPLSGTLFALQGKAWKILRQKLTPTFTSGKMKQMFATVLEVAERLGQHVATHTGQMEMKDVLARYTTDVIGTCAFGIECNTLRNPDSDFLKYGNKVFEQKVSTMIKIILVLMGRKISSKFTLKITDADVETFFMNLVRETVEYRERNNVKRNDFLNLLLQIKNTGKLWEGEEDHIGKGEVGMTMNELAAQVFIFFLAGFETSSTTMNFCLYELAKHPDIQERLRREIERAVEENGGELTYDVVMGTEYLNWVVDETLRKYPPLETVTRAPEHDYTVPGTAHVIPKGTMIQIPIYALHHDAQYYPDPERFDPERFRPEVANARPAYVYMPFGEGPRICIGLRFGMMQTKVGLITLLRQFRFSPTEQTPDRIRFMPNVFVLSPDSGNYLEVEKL
T1 sequence (Q7QFI3 1-587 partner): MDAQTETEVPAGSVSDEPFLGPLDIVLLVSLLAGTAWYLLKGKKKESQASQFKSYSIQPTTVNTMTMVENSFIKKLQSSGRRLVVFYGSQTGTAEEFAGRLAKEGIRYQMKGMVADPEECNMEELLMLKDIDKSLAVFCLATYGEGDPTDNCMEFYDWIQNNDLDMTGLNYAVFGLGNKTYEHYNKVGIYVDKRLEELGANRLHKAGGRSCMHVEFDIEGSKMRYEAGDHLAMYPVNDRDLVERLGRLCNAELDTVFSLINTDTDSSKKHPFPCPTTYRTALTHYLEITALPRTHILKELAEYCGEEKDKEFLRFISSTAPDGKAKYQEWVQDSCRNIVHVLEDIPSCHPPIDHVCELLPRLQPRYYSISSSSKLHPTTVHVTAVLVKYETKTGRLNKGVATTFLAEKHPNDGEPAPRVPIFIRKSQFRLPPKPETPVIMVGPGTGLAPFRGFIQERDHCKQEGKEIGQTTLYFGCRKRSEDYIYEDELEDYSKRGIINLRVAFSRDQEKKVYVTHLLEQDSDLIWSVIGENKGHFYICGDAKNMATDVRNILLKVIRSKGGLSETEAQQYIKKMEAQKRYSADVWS
T1 sequence (Q86QH4 1-128 partner): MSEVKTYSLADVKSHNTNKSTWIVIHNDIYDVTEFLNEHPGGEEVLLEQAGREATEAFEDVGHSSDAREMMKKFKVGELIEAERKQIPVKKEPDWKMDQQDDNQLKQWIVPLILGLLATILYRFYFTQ

CYP9J5 = biological target: T2, CYP9J5 (Anopheles gambiae, UniProt Q5TN57); experiment: biochemical
T2 sequence (Q5TN57 1-545): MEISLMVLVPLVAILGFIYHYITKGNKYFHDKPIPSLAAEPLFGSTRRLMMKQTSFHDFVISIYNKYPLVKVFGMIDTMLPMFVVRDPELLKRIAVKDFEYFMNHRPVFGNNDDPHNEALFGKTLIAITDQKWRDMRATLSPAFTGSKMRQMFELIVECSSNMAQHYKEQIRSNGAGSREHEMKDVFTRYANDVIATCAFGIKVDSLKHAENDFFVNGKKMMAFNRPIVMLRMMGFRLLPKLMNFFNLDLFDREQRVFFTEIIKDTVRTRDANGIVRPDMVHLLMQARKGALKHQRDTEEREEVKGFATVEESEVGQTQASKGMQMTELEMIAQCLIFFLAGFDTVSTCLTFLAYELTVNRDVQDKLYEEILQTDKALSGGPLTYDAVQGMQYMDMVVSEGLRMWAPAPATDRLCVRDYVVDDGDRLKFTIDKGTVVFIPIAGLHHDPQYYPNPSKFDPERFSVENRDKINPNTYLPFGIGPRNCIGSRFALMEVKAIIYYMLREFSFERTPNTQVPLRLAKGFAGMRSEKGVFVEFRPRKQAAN
T2 sequence (Q86QH5 1-679 partner): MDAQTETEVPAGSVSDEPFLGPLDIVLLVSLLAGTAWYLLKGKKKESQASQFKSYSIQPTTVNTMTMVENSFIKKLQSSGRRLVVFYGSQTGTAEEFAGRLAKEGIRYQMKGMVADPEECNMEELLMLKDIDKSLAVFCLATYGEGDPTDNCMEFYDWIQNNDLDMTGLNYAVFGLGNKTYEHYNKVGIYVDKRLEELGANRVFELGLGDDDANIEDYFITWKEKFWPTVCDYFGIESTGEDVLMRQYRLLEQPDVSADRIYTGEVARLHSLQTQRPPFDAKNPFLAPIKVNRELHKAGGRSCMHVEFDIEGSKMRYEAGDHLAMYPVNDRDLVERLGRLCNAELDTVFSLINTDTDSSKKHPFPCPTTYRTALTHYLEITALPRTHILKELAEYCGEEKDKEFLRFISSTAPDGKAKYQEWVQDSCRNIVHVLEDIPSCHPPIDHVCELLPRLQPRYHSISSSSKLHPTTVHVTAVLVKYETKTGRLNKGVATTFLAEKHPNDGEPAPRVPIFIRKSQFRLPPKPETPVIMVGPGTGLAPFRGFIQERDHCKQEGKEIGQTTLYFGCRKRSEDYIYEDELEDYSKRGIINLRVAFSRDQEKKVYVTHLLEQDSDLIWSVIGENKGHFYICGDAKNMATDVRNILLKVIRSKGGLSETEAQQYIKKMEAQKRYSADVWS
T2 sequence (Q86QH4 1-128 partner): T1 sequence (Q86QH4 1-128 partner)

Structure (SMILES) | % PPF depletion + PBO (CYP6P2; Anopheles gambiae, pH 7.4) | % PPF depletion −PBO (CYP6P2; Anopheles gambiae, pH 7.4) | IC50 (CYP9J5) | Inhibition ratio (%): reduction of PPF depletion caused by PBO (CYP6P2)
CC(COc1ccc(Oc2ccccc2)cc1)Oc1ccccn1 (centres unmarked) [PPF, pyriproxyfen] | 6.45 ± 3.22% | 58.03 ± 1.35% | 19 µM | 
CCCCOCCOCCOCc1cc2c(cc1CCC)OCO2 [PBO, piperonyl butoxide] |  |  |  | 91.0%
CC1(C)C(C=C(Cl)Cl)C1C(=O)OCc1cccc(Oc2ccccc2)c1 (mixture of isomers) [Permethrin, 3-phenoxybenzyl (1R,S)-cis,trans-3-(2,2-dichlorovinyl)-2,2-dimethylcyclopropanecarboxylate] |  |  | 6.47 µM | 
